Measurements reported in PMC6112376, “Comprehensive Analyses and Prioritization of Tox21 10K Chemicals Affecting Mitochondrial Function by in-Depth Mechanistic Studies” (Environmental Health Perspectives, 2018).
Counter-ions that a name gives are not always drawn. Like-named read-outs stand apart in the source and are kept apart here.

What was measured:
rat primary hepatocytes [1] = system: rat primary hepatocytes
HepG2 cells [2] = settings: cited from earlier work
rat primary hepatocytes [3] = assay: MMP assay in rat primary hepatocytes; settings: for IC50: read-out: MMP assays IC50 (µM) Rat Hepatocytes
HepG2 cells [4] = settings: for IC50: read-out: MMP assays IC50 (µM) HepG2
[5] = read-out: MMP assays IC50 (µM) qHTS-HepG2
[6] = read-out: MMP assays IC50 (µM), qHTS-HepG2

Row | Molecule | MMP assays efficacy (%) Rat Hepatocytes (rat primary hepatocytes [1]) | MMP assays efficacy (%) qHTS-HepG2 (HepG2 cells [2]) | IC50 (HepG2 cells [2]; [5]) | IC50 (rat primary hepatocytes [3]) | MMP assays efficacy (%) HepG2 (HepG2 cells [4]) | IC50 (HepG2 cells [4]) | IC50 (HepG2 cells [2]; [6]) | MMP assays IC50 (µM) Rat Hepatocytes (rat primary hepatocytes [3]) | MMP assays IC50 (µM) HepG2 (HepG2 cells [4]) | IC50 (rat primary hepatocytes [3]; Rattus norvegicus, Hepatocyte) | MMP assays IC50 (µM) qHTS-HepG2 (HepG2 cells [2])
1 | Oc1cc2ccccc2c2ccccc12 [Compound 9-Phenanthrol] | -94±31% | -101±8% | 1.22 ± 0.56 µM | 47.3 ± 10.7 µM | -101% | 3.55 µM | – | – | – | – | –
2 | Cc1oc(C)c(C(=O)Nc2ccccc2)c1C [Methfuroxam] | inactive | -69±12% | – | – | -48% | 17.8 µM | 25.8 ± 1.71 µM | inactive | – | – | –
3 | CS(=O)(=O)O.CS(=O)(=O)O.N=C(N)c1ccc(/C=C/c2ccc(C(=N)N)cc2O)cc1 | -71±16% | -57±17% | – | 13.6 ± 8.28 µM | inactive | – | 2.81 ± 0.9 µM | – | inactive | – | –
4 | Clc1ccc(Nc2nnc(Cc3ccncc3)c3ccccc23)cc1 | -51±4% | -81±8% | – | 20.7 ± 14.7 µM | -34% | 30.8 µM | 25.6 ± 4.41 µM | – | – | – | –
5 | Oc1ccc(C(c2ccc(O)cc2)C(Cl)(Cl)Cl)cc1 | -89±3% | -101±13% | 8.78 ± 1.43 µM | 33.2 ± 24.2 µM | -103% | 10 µM | – | – | – | – | –
6 | Nc1ccc(-c2ccc(N)c(N)c2)cc1N [3,3'-Diaminobenzidine] | -62±22% | -115±16% | 13.7 ± 14.9 µM | 30.7 ± 28.3 µM | -55% | 4.47 µM | – | – | – | – | –
7 | CC1(COc2ccc(CC3SC(=O)NC3=O)cc2)CCCCC1 (stereo not shown) [Ciglitizone] | -84±44% | -106±9% | 8.22 ± 1.6 µM | 9.92 ± 4.25 µM | -97% | 14.1 µM | – | – | – | – | –
8 | CC1(C)[C@@H](O)CC[C@]2(C)[C@H]3C(=O)C=C4[C@@H]5C[C@@](C)(C(=O)O)CC[C@]5(C)CC[C@@]4(C)[C@]3(C)CC[C@@H]12 [Glycyrrhetinic acid] | -44±24% | -88±53% | – | – | inactive | – | 40.1 ± 9.34 µM | – | inactive | 15.6 ± 2.52 µM | –
9 | O=C(N[C@@H]1N=C(c2ccccc2F)c2cccc3c2N(CC3)C1=O)c1cc2ccccc2[nH]1 | -61±16% | -64±4% | 8.41 µM | 17.3 µM | -81% | 13.8 µM | – | – | – | – | –
10 | CCCCCCCC/C=C\CCCCCCCC(=O)NCc1ccc(O)c(OC)c1 [Olvanil] | inactive | -74±8% | – | – | inactive | – | 13.5 ± 1.9 µM | inactive | inactive | – | –
11 | CN(C)c1ccc2nc3ccc(=[N+](C)C)cc-3sc2c1 [Methylene blue trihydrate] | -93±3% | -67±11% | – | – | -69% | 4.82 µM | 1.31 ± 0.79 µM | – | – | 7.29 ± 7.49 µM | –
12 | O=C(NC(=O)c1c(F)cccc1F)Nc1ccc(OC(F)(F)C(F)OC(F)(F)F)c(Cl)c1 (stereo not shown) [Novaluron] | inactive | inactive | – | – | inactive | – | – | inactive | inactive | – | inactive
13 | CC(C)(c1ccccc1)c1ccc(O)c(C(C)(C)c2ccccc2)c1 [2,4-Bis(1-methyl-1-phenylethyl)phenol] | -78±5% | -108±7% | 3.49 ± 1.51 µM | 43.9 ± 17.4 µM | -90% | 2.82 µM | – | – | – | – | –
14 | Cl.Nc1ccc(Nc2ccccc2)cc1 | inactive | -69±28% | – | – | -54% | 28.2 µM | 5.82 ± 6.96 µM | inactive | – | – | –
15 | CCCCCCCCCCCCCC[n+]1ccc(C)cc1.[Cl-] [Miripirium chloride] | -106±27% | -86±9% | – | 19.5 ± 2.25 µM | -121% | – | 16.4 ± 4.01 µM | – | – | – | –
16 | CC1=Nc2ccc3ccccc3c2C1(C)C [1,1,2-Trimethyl-1H-benzo[e]indole] | -100±23% | -76±16% | 23.4 ± 4.03 µM | 34.9 ± 8.48 µM | -96% | 10 µM | – | – | – | – | –

Row | Molecule | MMP assays efficacy (%) Rat Hepatocytes (rat primary hepatocytes [1]) | MMP assays efficacy (%) qHTS-HepG2 (HepG2 cells [2]) | IC50 (HepG2 cells [2]; [5]) | IC50 (rat primary hepatocytes [3]) | MMP assays efficacy (%) HepG2 (HepG2 cells [4]) | IC50 (HepG2 cells [4]) | IC50 (HepG2 cells [2]; [6]) | MMP assays IC50 (µM) Rat Hepatocytes (rat primary hepatocytes [3]) | MMP assays IC50 (µM) HepG2 (HepG2 cells [4]) | IC50 (rat primary hepatocytes [3]; Rattus norvegicus, Hepatocyte) | MMP assays IC50 (µM) qHTS-HepG2 (HepG2 cells [2])
17 | CC(c1ccc(O)cc1)c1ccc(O)cc1 [Bisphenol E] | -56±19% | -127±8% | 27.6 ± 1.8 µM | 36.5 ± 19.2 µM | -147% | 25.1 µM | – | – | – | – | –
18 | O=C(c1ccc(OCCN2CCCCC2)cc1)c1c(-c2ccc(O)cc2)sc2cc(O)ccc12 [Raloxifene hydrochloride] | -87±14% | -98±9% | – | 20.9 ± 7.23 µM | -127% | 7.94 µM | 6.69 ± 1.65 µM | – | – | – | –
19 | O=C(c1ccc(OCCN2CCCCC2)cc1)c1c(-c2ccc(O)cc2)sc2cc(O)ccc12 [Raloxifene] | -92±39% | -121±25% | – | – | -96% | 17.8 µM | 5.05 ± 3.99 µM | – | – | 22.4 ± 24.1 µM | –
20 | CC=O [Acetaldehyde] | -52±35% | -90±14% | 18 ± 6.38 µM | 6.65 ± 4.48 µM | inactive | – | – | – | inactive | – | –
21 | CN1C[C@H](C(=O)N[C@]2(C)O[C@@]3(O)[C@@H]4CCCN4C(=O)[C@H](Cc4ccccc4)N3C2=O)C=C2c3cccc4[nH]cc(c34)C[C@H]21 [Ergotamine D-tartrate] | inactive | -54±10% | 7.55 ± 1.06 µM | – | inactive | – | – | inactive | inactive | – | –
22 | NC(=O)c1cc([N+](=O)[O-])cc([N+](=O)[O-])c1 [Nitromide] | inactive | inactive | – | – | inactive | – | – | inactive | inactive | – | inactive
23 | O=[N+]([O-])c1ccc(F)c([N+](=O)[O-])c1 [1-Fluoro-2,4-dinitrobenzene] | -68±38% | -104±8% | 3.71 ± 0.6 µM | 8.3 ± 5.67 µM | -103% | 5.48 µM | – | – | – | – | –
24 | COc1ccc2c(=O)c(C)c(-c3ccccc3)oc2c1CN(C)C.Cl [Dimefline hydrochloride] | inactive | inactive | – | – | inactive | – | – | inactive | inactive | – | inactive
25 | N#Cc1c2ccccc2cc2ccccc12 [Compound 9-Cyanoanthracene] | -32±6% | -74±32% | 6.85 ± 18.1 µM | – | inactive | – | – | – | inactive | 18 ± 5.46 µM | –
26 | Mepartricin | -65±17% | -82±8% | – | 27.7 ± 4.48 µM | -99% | 6.9 µM | 23.2 ± 6.59 µM | – | – | – | –
27 | Nc1ccc(/N=N/c2ccccc2)c(N)n1 [Phenazopyridine hydrochloride] | -59±26% | -74±20% | – | – | inactive | – | 15.7 ± 3.45 µM | – | inactive | 23.8 ± 1.93 µM | –
28 | O=C1c2ccccc2C(=O)C1c1ccccc1 [Phenindione] | inactive | inactive | – | – | inactive | – | – | inactive | inactive | – | inactive
29 | Cl.Nc1c2ccccc2nc2ccccc12.O | -56±22% | -82±4% | 13.8 ± 1.75 µM | 8.51 ± 5.35 µM | -115% | 21.8 µM | – | – | – | – | –
30 | COc1cc([C@@H]2c3cc4c(cc3[C@@H](O)[C@H]3COC(=O)[C@H]23)OCO4)cc(OC)c1O [4'-Demethylepipodophyllotoxin] | inactive | -51±8% | 2.66 ± 3.92 µM | – | -63% | 2.18 µM | – | inactive | – | – | –
31 | Cresyl diphenyl phosphate | -76±37% | – | 2.38 ± 2.32 µM | 23 ± 9 µM | -91% | 3.55 µM | – | – | – | – | –
32 | ClC1C(Cl)C(Cl)C(Cl)C(Cl)C1Cl (stereo not drawn) [alpha-1,2,3,4,5,6-Hexachlorocyclohexane] | -54±20% | -54±7% | 49 ± 6.35 µM | 39.8 µM | inactive | – | – | – | inactive | – | –
